System: not listed separately
Test: Inhibition of Dengue virus NS5MTase assessed as methylation of 7MeGpppAC5

IC50 [µM] | Structure (SMILES)
60.5 | Cc1ccc(C23CC4CC(CC(NC(=O)N[C@@H](Cc5ccccc5)C(=O)O)(C4)C2)C3)cc1

System: Dengue virus
Test: Inhibition of Dengue virus NS5MTase assessed as methylation of 7MeGpppAC5 at 100 uM

Structure (SMILES) | inhibition [%]
Cc1ccc(S(=O)(=O)N2CCCCC2)cc1NC(=O)COC(=O)CN1C(=O)N[C@@]2(C[C@H](C)CC(C)(C)C2)C1=O | 5
O=C(O)[C@H]1CCCC[C@@H]1C(=O)N[C@H]1CCCC[C@@H]1NC(=O)[C@@H]1CCCC[C@H]1C(=O)O | 5
N[C@H](C(=O)O)[C@@H](O)c1ccc(OCc2ccccc2)c(OCc2ccccc2)c1 | 5
CC[C@@H](C)[C@H](NS(=O)(=O)c1ccc(C)cc1)C(=O)Oc1ccc2c(-c3ccc(OC)cc3)cc(=O)oc2c1 | 5
CC[C@@H](C)[C@H](NS(=O)(=O)c1ccc(C)cc1)C(=O)Oc1ccc2c(c1)oc(=O)c1cc(OC)ccc12 | 5
CN(C)S(=O)(=O)c1ccc(Cl)c(NC(=O)COC(=O)CNC(=O)CC23CC4CC(CC(C4)C2)C3)c1 | 5
O=C(Oc1cccc(NC2=NS(=O)(=O)c3ccccc32)c1)c1ccc(S(=O)(=O)N2CCCCC2)cc1 | 5
C[n+]1cn(CCCCCCn2cc([C@@H](O)c3ccccc3)[n+](C)c2)cc1[C@@H](O)c1ccccc1 | 5
CC[C@@H](C)[C@H](NS(=O)(=O)c1ccc(C)cc1)C(=O)Oc1cc2oc(=O)cc(-c3ccccc3)c2cc1Cl | 5
Cc1cc2oc(=O)cc(COC(=O)CN3C(=O)N[C@]4(C[C@H](C)CC(C)(C)C4)C3=O)c2cc1C(C)C | 5

Now from value to compound:

inhibition [%] | Structure (SMILES)
5 | CCOC(=O)Cn1c(=O)n(C[C@H]2CC[C@H](C(=O)NCCc3ccccc3)CC2)c(=O)c2ccccc21
5 | COC(=O)[C@@H](Cc1ccccc1)NC(=O)NC12CC3CC(C1)CC(c1ccc(C)cc1)(C3)C2
75 | Cc1ccc(C23CC4CC(CC(NC(=O)N[C@@H](Cc5ccccc5)C(=O)O)(C4)C2)C3)cc1
5 | O=C(N[C@@H](Cc1ccccc1)C(=O)O)c1ccc(C(=O)N[C@H](Cc2ccccc2)C(=O)O)cc1
5 | CC(C)[C@@H](N)C(=O)NC[C@H]1CC[C@@H](C(=O)N[C@@H](Cc2ccccc2)C(=O)O)CC1

— ChEMBL document CHEMBL1140515, “Virtual screening and bioassay study of novel inhibitors for dengue virus mRNA cap (nucleoside-2'O)-methyltransferase” (Bioorg Med Chem, 2007)
